Measured values: paper PMC7509492, “To What Extent Do Fluorophores Bias the Biological Activity of Peptides? A Practical Approach Using Membrane-Active Peptides as Models” (Frontiers in Bioengineering and Biotechnology, 2020)
pIC50: −log10 of the molar value. Like-named read-outs stand apart in the source and are kept apart here. Ends that are not written are not given here. Peptide text beside a SMILES is read from it. * marks the point of attachment. RhodamineB = CCN(CC)c1ccc2c(-c3ccccc3C(=O)*)c3ccc(=[N+](CC)CC)cc-3oc2c1; X1 = CC[N+]1=C(C=CC=C2N(CCCCCC(=O)*)c3ccccc3C2(C)C)C(C)(C)c2ccccc21; 5FAM = O=C1OC2(c3ccc(O)cc3Oc3cc(O)ccc32)c2ccc(C(=O)*)cc21

What was measured:
[1] = tested on: HBEC-5i cells (in vitro BBB model); assay: In vitro BBB translocation across HBEC-5i transwell monolayer; assay type: in vitro ADME, human; details: HBEC-5i monolayer on PET transwell 1.0 μm pores, apical to basolateral, 10 μM, 24 h, DMEM:F12 without phenol red, mean ± SD, triplicates of three independent experiments
Text: HBEC-5i cells were allowed to grow until confluence in a gelatin-coated T-flask. Then, cells were carefully harvested with trypsin-EDTA (Gibco/Thermo Fisher, United States) and seeded 8,000 cells/well to 0.1% gelatin solution coated tissue culture inserts [transparent polyester (PET) membrane with 1.0 μm pores] for 24-well plates (BD Falcon, United States). During 8 days, the medium was changed every 2 days. After 8 days, cells were washed two times with 1× PBS and once with DMEM:F12 medium without phenol red (Gibco/Thermo Fisher, United States). Then, peptides diluted in DMEM:F12 medium without phenol red to a final concentration of 10 μM were added to the apical side of the in vitro BBB model (Figure 1). Experiments were performed on different days using independently grown cell cultures.
FIGURE 1 Scheme of an in vitro BBB transwell membrane system. Human brain endothelial cells (HBEC-5i) are cultured as monolayer on the apical side of a polyester (PET) transwell insert (1.0 μm pore size). Then, 10 μM of peptides are added to the apical side, and the translocation measured as the amount detected on the basolateral side.
The translocation of peptides labeled with different fluorophores was determined by fluorescence emission. After 24 h incubation, samples from the apical and basolateral side were collected and analyzed. Fluorescence was measured using the infinite F200 TECAN plate reader. The percentage (%) of translocation was calculated using the following equation:
(3) Translocation(%)=(Fi-Fcells/Fpeptide-FMedium)×100
Fi is the fluorescence intensity recovered, Fcells is the fluorescence intensity recovered from cells without peptide incubation, Fpeptide is the fluorescence intensity of total peptide initially added to the transwell apical side, and FMedium is the fluorescence intensity of the medium.
The translocation of unlabeled peptides was determined by the calculation of the respective area under the curve (AUC) in the reversed phase HPLC chromatograms. After 24 h incubation, samples from the apical and basolateral side were collected and analyzed by HPLC on a PerkinElmer Series 200 pump coupled to a PerkinElmer Series 200 UV/Vis Detector on a Luca C18 column (4.6 mm × 50 mm, 3 μm, Phenomenex, United States), eluting with linear gradients of HCOOH/MeCN (0.1%, v/v) into HCOOH/H2O (0.1%, v/v) over 15 min at 1 mL/min. UV detection was λ = 220 nm. The percentage (%) of translocation was calculated using the following equation:
(4) Translocation(%)=(AUCi/AUCpeptide)×100
AUCi is the AUC of peptide recovered and AUCpeptide is the AUC of total peptide initially added to the transwell apical side.

[2] = CellTiter-Blue cell viability assay, HBEC-5i; assay type: cell-based, human; details: human, HBEC-5i cells, Table 1, peptide 0.01-100 μM, mean ± SD, triplicates of three independent experiments, read-out: Cytotoxicity HBEC-5i cells IC50
Description: (§1) Peptides cytotoxicity against both HBEC-5i and MDA-MB-231 cells was determined using CellTiter-Blue® Cell Viability Assay, according to the manufacturer’s instructions. The assay is based on the ability of viable cells to reduce resazurin into resorufin, a highly fluorescent metabolite. […] Therefore, using this methodology is possible to distinguish between metabolic and non-metabolic cells and indirectly determine the cytotoxicity of peptides. Briefly, HBEC-5i and MDA-MB-231 cells were carefully detached from T-flasks, as described previously, and seeded 15,000/100 and 10,000/100 μL, respectively, in 96-well plates (Corning, United States) and incubated for 24 h. After medium removal, cells were washed two times with 1× PBS and 100 μL of previously diluted peptides (range between 0.01 and 100 μM) in either DMEM or DMEM:F12 medium were added to MDA-MB-231 or HBEC-5i cells, respectively. After 24 h incubation, cells were washed two times with 1× PBS, and 20 μL of CellTiter-Blue® Reagent (diluted in 100 μL of medium) was added to each well and incubated for 3 h in a humidified atmosphere of 5% CO2 at 37°C. The fluorescence intensity was measured at λ with an excitation of 560 nm and maximum emission at 590 nm using the infinite F200 TECAN plate reader. Medium and 1% Triton X-100-containing medium were used as positive controls (100% cell viability) and negative controls (0% cell viability), respectively. Cell viability (%) was determined using the following equation:
(§2) (7) CellViability=FP-FNC/FPC-FNC×100
(§3) Fp is the fluorescence intensity of peptide-treated cells, FNC is the fluorescence intensity for negative controls, and FPC is the fluorescence intensity for positive controls.
(§4) Experiments were performed on different days using independently grown cell cultures.
(§5) FIGURE 4 In vitro cytotoxicity unlabeled- and labeled-peptides. (A,B) Cytotoxicity against HBEC-5i cells. (C,D) Cytotoxicity against MDA-MB-231 cells. 1.5 × 10^4 and 1.0 × 10^4 cells of HBEC-5i and MDA-MB-231 cells, respectively, were incubated with various concentrations of peptides (range from 0.01 to 100 μM). The percentage of viability was determined using CellTiter® Blue reagent assay. […] Error bars, S.D.

HBEC-5i cells = assay: CellTiter-Blue cell viability assay, HBEC-5i; assay type: cell-based, human; details: peptide 0.01-100 μM, mean ± SD, triplicates of three independent experiments; for Cytotoxicity HBEC-5i cells IC10: Table 1, concentration causing 10% cell death; for Cytotoxicity HBEC-5i cells IC10 / Cytotoxicity HBEC-5i cells IC90: 24 h; for Cytotoxicity HBEC-5i cells IC90: Table 1, concentration causing 90% cell death; for pIC50: Table 1, 24 h, read-out: Cytotoxicity HBEC-5i cells IC50
Description: as §1, §2, §3, §4, §5

human RBCs [3] = tested on: human RBCs
Description: (§6) Fresh human blood was collected in EDTA tubes and centrifuged at 1,000 × g for 10 min at 4°C. The supernatant was discharged, and the pellet containing RBCs was washed three times with 1× PBS (137 mM NaCl, 2.7 mM KCl, 10 mM Na2HPO4, and 1.8 mM KH2PO4, pH 7.4) and resuspended in 1× PBS to obtain a 2.0% (v/v) suspension. Then, RBCs were added to centrifuge tubes containing two-fold serially diluted peptides to a final concentration ranging from 0.01 to 100 μM. The suspension was incubated for 24 h at 37°C with gentle stirring. After that, samples were centrifuged for 2 min at 1,000 × g. Supernatants were transferred to 96-well plates, and the hemoglobin released measured by absorbance at 570 nm in an Infinite F200 TECAN plate reader. 1× PBS with no peptides and Triton X-100 at 1 and 4% (v/v) were used as negative and positive controls, respectively. Hemolytic activity (%) was determined using the following equation:
(§7) (2) Hemolyticactivity(%)=AbsPT-AbsNC/AbsPC-AbsNC
(§8) where, AbsPT is the absorbance of treated samples, AbsNC is the absorbance from negative control, and AbsPC absorbance from positive control.
(§9) HC50 values were determined using the GraphPad Prism 7.0 software using a log(inhibitor) vs. normalized response. Experiments were performed on different days using independent blood donors.
(§10) (range from 0.01 to 100 μM). The percentage of hemolysis was determined by the absorbance of hemoglobin released into the supernatant. Melittin was included as a control peptide with hemolytic properties. The values were obtained from triplicates of three independent experiments. Error bars, S.D.

human RBCs [4] = assay: Hemolytic activity on human red blood cells; details: 37°C; for Hemolytic activity HC10 / Hemolytic activity HC50 / Hemolytic activity HC90: Table 1, human RBCs in 1x PBS pH 7.4, 24 h, peptide 0.01-100 μM, mean ± SD, triplicates of three independent experiments; for Hemolytic activity HC10: concentration causing 10% hemolysis, hemoglobin absorbance 570 nm; for Hemolytic activity HC50: concentration causing 50% hemolysis; for Hemolytic activity HC50 / Hemolytic activity HC90: absorbance 570 nm; for Hemolytic activity HC90: concentration causing 90% hemolysis
Description: as §6, §7, §8, §9, §10

[5] = labeled peptide, quantified by fluorescence emission
[6] = unlabeled peptide, quantified by HPLC (AUC, UV 220 nm)

Molecule | Translocation (%) [1, 5] [%] | CC50 at 24 h [2] [µM] | Cytotoxicity HBEC-5i cells IC10 (HBEC-5i cells) [µM] | Hemolytic activity HC10 (human RBCs [3]; pH 7.4) [µM] | Hemolytic activity HC50 (human RBCs [3]; pH 7.4) [µM] | Hemolytic activity HC90 (human RBCs [3]; pH 7.4) [µM] | Hemolytic activity HC10 (human RBCs [3]) [µM] | Hemolytic activity HC50 (human RBCs [3]) [µM] | Hemolytic activity HC90 (human RBCs [3]) [µM] | Cytotoxicity HBEC-5i cells IC90 (HBEC-5i cells) [µM] | Hemolytic activity HC10 (human RBCs [4]) [µM] | Hemolytic activity HC50 (human RBCs [4]) [µM] | Hemolytic activity HC90 (human RBCs [4]) [µM] | Translocation (%) [1, 6] [%] | Hemolysis of RBCs, in words (human RBCs [4]; human RBCs, up to 100 μM, 24 h) | pIC50 (HBEC-5i cells)
CC[C@H](C)[C@H](NC(=O)CNC(=O)[C@H](C)NC(=O)c1ccc2c(c1)C(=O)OC21c2ccc(O)cc2Oc2cc(O)ccc21)C(=O)N[C@@H](CC(C)C)C(=O)N[C@@H](CCCCN)C(=O)N[C@@H](CCCNC(=N)N)C(=O)N[C@@H](Cc1c[nH]c2ccccc12)C(N)=O [CF-PepH3] (5FAM-AGILKRW-NH2) | 57.09 ± 2.43 | > 200 | >200 | >200 | >200 | >200 | – | – | – | – | – | – | – | – | – | –
C[C@@H](O)[C@H](NC(=O)CNC(=O)[C@H](CO)NC(=O)c1ccc2c(c1)C(=O)OC21c2ccc(O)cc2Oc2cc(O)ccc21)C(=O)N[C@@H](CCC(N)=O)C(=O)N[C@@H](CCC(=O)O)C(=O)N[C@@H](CCC(=O)O)C(=O)N[C@@H](Cc1ccc(O)cc1)C(N)=O [CF-PepNeg] (5FAM-SGTQEEY-NH2) | 56.01 ± 3.49 | > 200 | >200 | – | – | – | – | – | – | – | – | – | – | – | – | –
CC[C@H](C)[C@H](NC(=O)CNC(=O)[C@H](C)NC(=O)CCCCCN1C(=CC=CC2=[N+](CC)c3ccccc3C2(C)C)C(C)(C)c2ccccc21)C(=O)N[C@@H](CC(C)C)C(=O)N[C@@H](CCCCN)C(=O)N[C@@H](CCCNC(=N)N)C(=O)N[C@@H](Cc1c[nH]c2ccccc12)C(N)=O [Q570-PepH3] (X1-AGILKRW-NH2) | 59.60 ± 2.64 | > 200 | >200 | >200 | >200 | >200 | > 200 | > 200 | > 200 | – | – | – | – | – | – | –
CC[N+]1=C(C=CC=C2N(CCCCCC(=O)N[C@@H](CO)C(=O)NCC(=O)N[C@H](C(=O)N[C@@H](CCC(N)=O)C(=O)N[C@@H](CCC(=O)O)C(=O)N[C@@H](CCC(=O)O)C(=O)N[C@@H](Cc3ccc(O)cc3)C(N)=O)[C@@H](C)O)c3ccccc3C2(C)C)C(C)(C)c2ccccc21 [Q570-PepNeg] (X1-SGTQEEY-NH2) | 48.89 ± 3.05 | > 200 | >200 | – | – | – | – | – | – | – | – | – | – | – | – | –
CC[C@H](C)[C@H](NC(=O)CNC(=O)[C@H](C)NC(=O)c1ccccc1-c1c2ccc(=[N+](CC)CC)cc-2oc2cc(N(CC)CC)ccc12)C(=O)N[C@@H](CC(C)C)C(=O)N[C@@H](CCCCN)C(=O)N[C@@H](CCCNC(=N)N)C(=O)N[C@@H](Cc1c[nH]c2ccccc12)C(N)=O [RhB-PepH3] (RhodamineB-AGILKRW-NH2) | 51.57 ± 4.81 | > 200 | >200 | 9.208 | 128.3 | >200 | 9.208 ± 1.564 | 128.3 ± 6.596 | > 200 | >200 | – | – | – | – | – | –
CCN(CC)c1ccc2c(-c3ccccc3C(=O)N[C@@H](CO)C(=O)NCC(=O)N[C@H](C(=O)N[C@@H](CCC(N)=O)C(=O)N[C@@H](CCC(=O)O)C(=O)N[C@@H](CCC(=O)O)C(=O)N[C@@H](Cc3ccc(O)cc3)C(N)=O)[C@@H](C)O)c3ccc(=[N+](CC)CC)cc-3oc2c1 [RhB-PepNeg] (RhodamineB-SGTQEEY-NH2) | 51.57 ± 2.43 | > 200 | >200 | – | – | – | – | – | – | >200 | >200 | >200 | >200 | – | – | –
AGILKRW-NH2 [PepH3] | – | > 200 | >200 | – | – | – | – | – | – | >200 | >200 | >200 | >200 | 55.15 ± 3.16 | non-hemolytic | –
SGTQEEY-NH2 [PepNeg] | – | > 200 | >200 | >200 | >200 | >200 | – | – | – | >200 | – | – | – | 50.16 ± 3.13 | – | –
TF3-AGILKRW-amide [TF3-PepH3] | 56.74 ± 3.89 | – | 184.9 ± 6.57 | – | – | – | – | – | – | >200 | >200 | >200 | >200 | – | – | < 3.70
TF3-SGTQEEY-amide [TF3-PepNeg] | 53.69 ± 2.94 | – | >200 | – | – | – | – | – | – | >200 | >200 | >200 | >200 | – | – | < 3.70
